Results from patent US9662327B2 (AGIOS PHARMACEUTICALS, INC, priority 2011, dated 2017).

Target: IDH1 R132H (Homo sapiens (Human), UniProt O75874, R132H)
Assay: Assays for IDH1 R132H Inhibitors (NADPH/aKG, resazurin detection)
Assay type: biochemical
Settings: IDH1 R132H enzyme, Table 2; read-out: IDHR132H Activity
Method in brief: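 Substrate mix held 8 uM NADPH plus 2 mM aKG; buffer was 20 mM Tris pH 7.5 with 150 mM NaCl, 10 mM MgCl2, 0.03% BSA. After 50 min room-temperature reaction, NADPH remaining was detected with 30 μM resazurin mix over 5 min.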

Sequence of IDH1 R132H (O75874 whole entry R132H): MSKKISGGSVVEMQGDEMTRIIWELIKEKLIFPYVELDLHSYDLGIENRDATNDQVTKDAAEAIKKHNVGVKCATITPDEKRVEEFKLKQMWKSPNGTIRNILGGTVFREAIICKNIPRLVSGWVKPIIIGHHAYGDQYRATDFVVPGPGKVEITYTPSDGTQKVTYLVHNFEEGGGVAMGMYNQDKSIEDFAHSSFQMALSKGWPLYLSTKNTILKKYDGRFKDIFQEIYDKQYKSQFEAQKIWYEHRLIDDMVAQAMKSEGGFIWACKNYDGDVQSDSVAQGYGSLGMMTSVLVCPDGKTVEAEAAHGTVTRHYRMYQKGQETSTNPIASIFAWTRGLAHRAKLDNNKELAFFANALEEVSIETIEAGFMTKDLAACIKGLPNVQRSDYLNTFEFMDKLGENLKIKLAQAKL

Structure (SMILES) | IC50 [nM]
C=CCNC(=O)N1CCN(c2nc(C3CC3)c3c(c2C#N)CC(C)(C)OC3)C[C@H]1C(C)C [Compound 304, (R)—N-allyl-4-(5-cyano-8-cyclopropyl-3,3-dimethyl-3,4-dihydro-1H-pyrano[3,4-c]pyridin-6-yl)-2-isopropylpiperazine-1-carboxamide] | < 500
CC(C)[C@@H]1CN(c2nc(C3CC3)c3c(c2C#N)CC(C)(C)OC3)CCN1C(=O)C1CCOCC1 [Compound 305] | 1000 to 10000
CC(C)[C@@H]1CN(c2nc(C3CC3)c3c(c2C#N)CC(C)(C)OC3)CCN1C(=O)OC(C)(C)C [Compound 306, (R)-tert-butyl 4-(5-cyano-8-cyclopropyl-3,3-dimethyl-3,4-dihydro-1H-pyrano[3,4-c]pyridin-6-yl)-2-isopropylpiperazine-1-carboxylate] | 1000 to 10000
C[C@@H]1CN(c2nc(C3CC3)c3c(c2C#N)CC(C)(C)OC3)[C@@H](C)CN1C(=O)c1ccoc1 [Compound 308, 8-cyclopropyl-6-((2S,5R)-4-(furan-3-carbonyl)-2,5-dimethylpiperazin-1-yl)-3,3-dimethyl-3,4-dihydro-1H-pyrano[3,4-c]pyridine-5-carbonitrile] | 1000 to 10000
C[C@@H]1CN(c2nc(C3CC3)c3c(c2C#N)CC(C)(C)OC3)[C@@H](C)CN1C(=O)Cc1cccs1 [Compound 309] | 1000 to 10000
COCCC(=O)N1C[C@H](C)N(c2nc(C3CC3)c3c(c2C#N)CC(C)(C)OC3)C[C@H]1C [Compound 310, 8-cyclopropyl-6-((2S,5R)-4-(3-methoxypropanoyl)-2,5-dimethylpiperazin-1-yl)-3,3-dimethyl-3,4-dihydro-1H-pyrano[3,4-c]pyridine-5-carbonitrile] | 1000 to 10000
CCOC(=O)C1CN(c2nc(C(C)C)c3c(c2C#N)CC(C)(C)OC3)CCN1C(=O)CCOC (stereo not shown) [Compound 311, ethyl 4-(5-cyano-8-isopropyl-3,3-dimethyl-3,4-dihydro-1H-pyrano[3,4-c]pyridin-6-yl)-1-(3-methoxypropanoyl)piperazine-2-carboxylate] | 500 to 1000
COCCC(=O)N1CCN(c2nc(C3CCCCC3)c3c(c2C#N)CC(C)(C)OC3)C[C@H]1C [Compound 312, (R)-8-cyclohexyl-6-(4-(3-methoxypropanoyl)-3-methylpiperazin-1-yl)-3,3-dimethyl-3,4-dihydro-1H-pyrano[3,4-c]pyridine-5-carbonitrile] | 1000 to 10000
CCOC(=O)C1CN(c2nc(C3CCCCC3)c3c(c2C#N)CCOC3)CCN1C(=O)CCSC (stereo not shown) [Compound 313, ethyl 4-(5-cyano-8-cyclohexyl-3,4-dihydro-1H-pyrano[3,4-c]pyridin-6-yl)-1-(3-(methylthio)-propanoyl)piperazine-2-carboxylate] | 1000 to 10000
CCOC(=O)C1CN(c2nc(C3CCCCC3)c3c(c2C#N)CCOC3)CCN1C(=O)c1ccco1 (stereo not shown) [Compound 314, ethyl 4-(5-cyano-8-cyclohexyl-3,4-dihydro-1H-pyrano[3,4-c]pyridin-6-yl)-1-(furan-2-carbonyl) piperazine-2-carboxylate] | 1000 to 10000
CCOC(=O)C1CN(c2nc(C3CCCCC3)c3c(c2C#N)CCOC3)CCN1C(=O)OCCOC (stereo not shown) [Compound 315, 2-ethyl-1-(2-methoxyethyl) 4-(5-cyano-8-cyclohexyl-3,4-dihydro-1H-pyrano[3,4-c]pyridin-6-yl)-piperazine-1,2-dicarboxylate] | 1000 to 10000
COc1ccc(NC(=O)N2CCN(c3nc(C4CC4)c4c(c3C#N)CC(C)(C)OC4)C[C@H]2C(C)C)cc1 [Compound 316, (R)-4-(5-cyano-8-cyclopropyl-3,3-dimethyl-3,4-dihydro-1H-pyrano[3,4-c]pyridin-6-yl)-2-isopropyl-N-(4-methoxyphenyl)piperazine-1-carboxamide] | 1000 to 10000
CC(C)[C@@H]1CN(c2nc(C3CC3)c3c(c2C#N)CC(C)(C)OC3)CCN1C(=O)CCl [Compound 317, (R)-6-(4-(2-chloroacetyl)-3-isopropylpiperazin-1-yl)-8-cyclopropyl-3,3-dimethyl-3,4-dihydro-1H-pyrano[3,4-c]pyridine-5-carbonitrile] | < 500
CC1(C)Cc2c(C#N)c(N3CCN(C(=O)c4ccoc4)C(C)(C)C3)nc(C3CC3)c2CO1 [Compound 318, 8-cyclopropyl-6-(4-(furan-3-carbonyl)-3,3-dimethylpiperazin-1-yl)-3,3-dimethyl-3,4-dihydro-1H-pyrano[3,4-c]pyridine-5-carbonitrile] | 1000 to 10000
CC1(C)Cc2c(C#N)c(N3CCN(C(=O)c4ccco4)C(C)(C)C3)nc(C3CC3)c2CO1 [Compound 319] | 1000 to 10000
CSCCC(=O)N1CCN(c2nc(C3CC3)c3c(c2C#N)CC(C)(C)OC3)CC1(C)C [Compound 320, 8-cyclopropyl-6-(3,3-dimethyl-4-(3-(methylthio)propanoyl)piperazin-1-yl)-3,3-dimethyl-3,4-dihydro-1H-pyrano[3,4-c]pyridine-5-carbonitrile] | 1000 to 10000
Cc1occc1C(=O)N1CCN(c2nc(C3CC3)c3c(c2C#N)CC(C)(C)OC3)CC1(C)C [Compound 321] | 1000 to 10000

Structure (SMILES) | IC50 [nM]
CC(=O)OCCCN1CCN(c2nc(C3CC3)c3c(c2C#N)CC(C)(C)OC3)C[C@H]1C(C)C [Compound 322] | 1000 to 10000
CC(C)[C@@H]1CN(c2nc(C3CC3)c3c(c2C#N)CC(C)(C)OC3)CCN1S(C)(=O)=O [Compound 323, (R)-8-cyclopropyl-6-(3-isopropyl-4-(methylsulfonyl)piperazin-1-yl)-3,3-dimethyl-3,4-dihydro-1H-pyrano[3,4-c]pyridine-5-carbonitrile] | 1000 to 10000
CC(C)[C@@H]1CN(c2nc(C3CC3)c3c(c2C#N)CC(C)(C)OC3)CCN1C(=O)Cn1cncn1 [Compound 324, (R)-6-(4-(2-(1H-1,2,4-triazol-1-yl)acetyl)-3-isopropylpiperazin-1-yl)-8-cyclopropyl-3,3-dimethyl-3,4-dihydro-1H-pyrano[3,4-c]pyridine-5-carbonitrile] | 1000 to 10000
CC(C)[C@@H]1CN(c2nc(C3CC3)c3c(c2C#N)CC(C)(C)OC3)CCN1C(=O)Cn1cccn1 [Compound 325, (R)-6-(4-(2-(1H-pyrazol-1-yl)acetyl)-3-isopropylpiperazin-1-yl)-8-cyclopropyl-3,3-dimethyl-3,4-dihydro-1H-pyrano[3,4-c]pyridine-5-carbonitrile] | 500 to 1000
CCCCCNC(=O)N1CCN(c2nc(C3CC3)c3c(c2C#N)CC(C)(C)OC3)C[C@H]1C(C)C [Compound 327] | 1000 to 10000
CCOC(=O)C1CN(c2nc(C(C)C)c3c(c2C#N)CC(C)(C)OC3)CCN1C(=O)OCCOC (stereo not shown) [Compound 329, 2-ethyl 1-(2-methoxyethyl) 4-(5-cyano-8-isopropyl-3,3-dimethyl-3,4-dihydro-1H-pyrano[3,4-c]pyridin-6-yl)piperazine-1,2-dicarboxylate] | 1000 to 10000
C=CCNC(=O)N1CCN(c2nc(C3CCCCC3)c3c(c2C#N)CCOC3)CC1C(=O)OCC (stereo not shown) [Compound 330, ethyl 1-(allylcarbamoyl)-4-(5-cyano-8-cyclohexyl-3,4-dihydro-1H-pyrano[3,4-c]pyridin-6-yl)-piperazine-2-carboxylate] | 1000 to 10000
C=CCNC(=O)N1CCN(c2nc(C(C)C)c3c(c2C#N)CC(C)(C)OC3)CC1C(=O)OCC (stereo not shown) [Compound 331, ethyl 1-(allylcarbamoyl)-4-(5-cyano-8-isopropyl-3,3-dimethyl-3,4-dihydro-1H-pyrano[3,4-c]pyridin-6-yl)piperazine-2-carboxylate] | 1000 to 10000
CCOC(=O)C1CN(c2nc(C(C)C)c3c(c2C#N)CC(C)(C)OC3)CCN1C(=O)Cc1cccs1 (stereo not shown) [Compound 332, ethyl 4-(5-cyano-8-isopropyl-3,3-dimethyl-3,4-dihydro-1H-pyrano[3,4-c]pyridin-6-yl)-1-(2-(thiophen-2-yl)acetyl)piperazine-2-carboxylate] | 500 to 1000
CCOC(=O)C1CN(c2nc(C(C)C)c3c(c2C#N)CC(C)(C)OC3)CCN1C(=O)OC (stereo not shown) [Compound 333, 2-ethyl 1-methyl 4-(5-cyano-8-isopropyl-3,3-dimethyl-3,4-dihydro-1H-pyrano[3,4-c]pyridine-6-yl)piperazine-1,2-dicarboxylate] | 1000 to 10000
C=CCNC(=O)N1CCN(c2nc(C3CCCCC3)c3c(c2C#N)CCOC3)C[C@H]1C [Compound 334, (R)—N-allyl-4-(5-cyano-8-cyclohexyl-3,4-dihydro-1H-pyrano[3,4-c]pyridin-6-yl)-2-methylpiperazine-1-carboxamide] | 1000 to 10000
CCNC(=O)N1CCN(c2nc(C3CCCCC3)c3c(c2C#N)CCOC3)C[C@H]1C [Compound 335, (R)-4-(5-cyano-8-cyclohexyl-3,4-dihydro-1H-pyrano[3,4-c]pyridin-6-yl)-N-ethyl-2-methylpiperazine-1-carboxamide] | 1000 to 10000
C[C@@H]1CN(c2nc(C3CCCCC3)c3c(c2C#N)CCOC3)CCN1S(C)(=O)=O [Compound 336, (R)-8-cyclohexyl-6-(3-methyl-4-(methylsulfonyl)piperazin-1-yl)-3,4-dihydro-1H-pyrano[3,4-c]pyridine-5-carbonitrile] | 1000 to 10000
COc1ccc(OC(=O)N2CCN(c3nc(C4CC4)c4c(c3C#N)CC(C)(C)OC4)C[C@H]2C(C)C)cc1 [Compound 337, (R)-4-methoxyphenyl 4-(5-cyano-8-cyclopropyl-3,3-dimethyl-3,4-dihydro-1H-pyrano[3,4-c]pyridine-6-yl)-2-isopropylpiperazine-1-carboxylate] | 1000 to 10000
CON(C)CC(=O)N1CCN(c2nc(C3CC3)c3c(c2C#N)CC(C)(C)OC3)C[C@H]1C(C)C [Compound 338] | 1000 to 10000
CC(C)COC(=O)N1CCN(c2nc(C3CC3)c3c(c2C#N)CC(C)(C)OC3)C[C@H]1C(C)C [Compound 339, (R)-isobutyl 4-(5-cyano-8-cyclopropyl-3,3-dimethyl-3,4-dihydro-1H-pyrano[3,4-c]pyridin-6-yl)-2-isopropyl-piperazine-1-carboxylate] | 1000 to 10000
C[C@@H]1CN(c2nc(C3CCCCC3)c3c(c2C#N)CCOC3)CCN1C(=O)CCl [Compound 340, (R)-6-(4-(2-chloroacetyl)-3-methylpiperazin-1-yl)-8-cyclohexyl-3,4-dihydro-1H-pyrano[3,4-c]pyridine-5-carbonitrile] | < 500
